In US9266869B2, “Substituted dialkyl(oxido)-lambda4-sulfanylidene nicotinamide derivatives as kinase inhibitors” (Allergan, Inc., priority 2013, dated 2016):

Legend:
PDGFRβ [1] = target: T1, PDGFRβ (Homo sapiens (Human), UniProt P09619); experiment: PDGFRβ Kinase Assay; format: biochemical; settings: purified cytoplasmic domain PDGFR-b protein, 36 μM ATP; read-out: PDGFRβ Enzyme Assay (IC50 nM)
Experimental: Biochemical PDGFRβ kinase assays were performed in 96 well microtiter plates that were coated overnight with 75 μg of poly-Glu-Tyr (4:1) in 10 mM Phosphate Buffered Saline (PBS), pH 7.4.
(§1) PBS-T prior to starting the reaction. Reactions were carried out in 100 μL reaction volumes containing 36 μM ATP in kinase buffer (50 mM Hepes buffer pH 7.4, 20 mM MgCl2, 0.1 mM MnCl2 and 0.2 mM Na3VO4). […] Reactions were initiated by the addition 20 ul per well of kinase buffer containing 200-300 ng purified cytoplasmic domain PDGFR-b protein (Millipore). Following a 60 minute incubation at 30° C., the reactions were washed 2 mls per well PBS-T. 100 μl of a monoclonal anti-phosphotyrosine antibody-peroxidase conjugate diluted 1:10,000 in PBS-T was added to the wells for 30 minutes. Following a 2 mls per well wash with PBS-Tween-20, 100 μl of O-Phenylenediamine Dihydrochloride in phosphate-citrate buffer, containing urea hydrogen peroxide, was added to the wells for 7-10 minutes as a colorimetric substrate for the peroxidase. […] IC50 values for compound inhibition were calculated directly from graphs of optical density (arbitrary units) versus compound concentration following subtraction of blank values.
Target sequence in this assay (P09619 554-1106): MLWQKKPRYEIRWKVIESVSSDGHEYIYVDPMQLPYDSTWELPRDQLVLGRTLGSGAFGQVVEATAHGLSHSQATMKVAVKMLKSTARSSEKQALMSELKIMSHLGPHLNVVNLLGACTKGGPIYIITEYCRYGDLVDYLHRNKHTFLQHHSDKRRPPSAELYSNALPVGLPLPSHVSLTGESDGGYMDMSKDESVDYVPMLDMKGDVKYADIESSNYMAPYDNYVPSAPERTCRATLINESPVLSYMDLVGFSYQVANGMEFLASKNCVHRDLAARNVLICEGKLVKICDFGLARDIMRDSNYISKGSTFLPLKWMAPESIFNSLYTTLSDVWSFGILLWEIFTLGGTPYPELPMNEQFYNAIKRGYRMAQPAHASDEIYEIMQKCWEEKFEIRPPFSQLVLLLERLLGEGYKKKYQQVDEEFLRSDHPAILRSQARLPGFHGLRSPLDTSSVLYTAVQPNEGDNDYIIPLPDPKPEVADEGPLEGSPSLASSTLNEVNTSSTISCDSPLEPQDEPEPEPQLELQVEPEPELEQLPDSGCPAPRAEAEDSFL

VEGFR2 (KDR) = VEGFR2 (KDR) (Homo sapiens (Human), UniProt P35968); experiment: VEGFR2 Kinase Assay; format: biochemical; settings: purified cytoplasmic domain KDR protein, 2.7 μM ATP; read-out: VEGFR2 Enzyme Assay (IC50 nM)
Experimental: as §1, with “VEGFR2 Kinase Assay Biochemical KDR kinase assays were performed in 96 well microtiter plates that were coated overnight with 75 μg/well of poly-Glu-[…]:1) in 10 mM Phosphate Buffered Saline (PBS), pH 7.4. […]” for “PBS-T prior to starting the reaction.”, “2.7” for “36”, “KDR” for “PDGFR-b”, “(BPS Bioscience, San Diego, Calif.).” for “(Millipore).”, “15” for “60”, “0-Phenylenediamine” for “O-Phenylenediamine”

VEGFR2 = VEGFR2 (Homo sapiens (Human), UniProt P35968); experiment: VEGFR2 Cellular Assay (VEGF induced intracellular calcium, FLIPR, HUVEC); format: cell-based; settings: VEGF165 stimulation (10 ng/mL)
Experimental: (§2) VEGFR2 Cellular Assay Automated FLIPR (Fluorometric Imaging Plate Reader) technology was used to screen for inhibitors of VEGF induced increases in intracellular calcium levels in fluorescent dye loaded endothelial cells. HUVEC (human umbilical vein endothelial cells) (Clonetics) were seeded in 384-well fibronectin coated black-walled plates overnight @ 37° C./5% CO2. Cells were loaded with calcium indicator Fluo-4 for 45 minutes at 37° C. Cells were washed 2 times (Elx405, Biotek Instruments) to remove extracellular dye. For screening, cells were pre-incubated with test agents for 30 minutes, at a single concentration (10 uM) or at concentrations ranging from 0.0001 to 10.0 uM followed by VEGF165 stimulation (10 ng/mL). Changes in fluorescence at 516 nm were measured simultaneously in all 384 wells using a cooled CCD camera. Data were generated by determining max-min fluorescence levels for unstimulated, stimulated, and drug treated samples. IC50 values for test compounds were calculated from % inhibition of VEGF stimulated responses in the absence of inhibitor.

PDGFRβ [2] = target: T1, PDGFRβ; experiment: PDGFRβ Cellular Assay (PDGF-induced intracellular calcium, FLIPR, NHDF-Ad); format: cell-based; settings: PDGF-BB stimulation (30 ng/mL)
Experimental: as §2, with “Automated” for “VEGFR2 Cellular Assay Automated”, “of PDGF-induced” for “of VEGF induced”, “[…]. NHDF-Ad (Normal Human Dermal Fibroblasts, Adult; Lonza)” for “cells. HUVEC (human umbilical vein endothelial cells) (Clonetics)”, “by PDGF-BB” for “by VEGF165”, “stimulation (30” for “stimulation (10”, “of PDGF-BB” for “of VEGF”
Target sequence in this assay (P09619 33-1106): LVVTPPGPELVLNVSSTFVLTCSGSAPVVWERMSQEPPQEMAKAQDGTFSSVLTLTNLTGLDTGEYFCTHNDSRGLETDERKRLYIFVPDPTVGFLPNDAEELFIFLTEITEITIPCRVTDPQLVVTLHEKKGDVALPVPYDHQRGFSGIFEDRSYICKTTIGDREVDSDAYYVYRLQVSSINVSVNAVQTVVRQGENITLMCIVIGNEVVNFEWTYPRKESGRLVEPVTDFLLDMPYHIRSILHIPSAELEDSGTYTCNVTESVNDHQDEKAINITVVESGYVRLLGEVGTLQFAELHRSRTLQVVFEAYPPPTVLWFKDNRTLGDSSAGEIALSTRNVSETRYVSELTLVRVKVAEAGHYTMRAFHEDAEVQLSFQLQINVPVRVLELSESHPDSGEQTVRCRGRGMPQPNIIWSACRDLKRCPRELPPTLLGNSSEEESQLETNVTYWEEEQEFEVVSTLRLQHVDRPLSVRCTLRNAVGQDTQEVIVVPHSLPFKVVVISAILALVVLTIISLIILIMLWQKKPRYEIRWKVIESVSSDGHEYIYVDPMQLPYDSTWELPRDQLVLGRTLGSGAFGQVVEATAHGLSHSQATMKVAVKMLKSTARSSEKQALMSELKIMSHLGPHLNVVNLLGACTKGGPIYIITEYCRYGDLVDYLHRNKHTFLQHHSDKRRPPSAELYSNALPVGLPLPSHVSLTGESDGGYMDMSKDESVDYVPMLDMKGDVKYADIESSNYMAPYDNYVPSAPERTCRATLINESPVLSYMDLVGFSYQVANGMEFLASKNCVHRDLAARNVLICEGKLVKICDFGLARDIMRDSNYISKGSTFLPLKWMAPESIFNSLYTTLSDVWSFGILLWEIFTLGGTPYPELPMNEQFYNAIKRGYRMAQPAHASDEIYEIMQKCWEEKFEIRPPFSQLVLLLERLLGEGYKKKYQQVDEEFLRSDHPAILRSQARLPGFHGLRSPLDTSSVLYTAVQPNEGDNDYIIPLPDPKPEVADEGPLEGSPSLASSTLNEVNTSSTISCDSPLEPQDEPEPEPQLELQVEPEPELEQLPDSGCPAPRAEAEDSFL

Sequence of VEGFR2 (KDR) (P35968 786-1356): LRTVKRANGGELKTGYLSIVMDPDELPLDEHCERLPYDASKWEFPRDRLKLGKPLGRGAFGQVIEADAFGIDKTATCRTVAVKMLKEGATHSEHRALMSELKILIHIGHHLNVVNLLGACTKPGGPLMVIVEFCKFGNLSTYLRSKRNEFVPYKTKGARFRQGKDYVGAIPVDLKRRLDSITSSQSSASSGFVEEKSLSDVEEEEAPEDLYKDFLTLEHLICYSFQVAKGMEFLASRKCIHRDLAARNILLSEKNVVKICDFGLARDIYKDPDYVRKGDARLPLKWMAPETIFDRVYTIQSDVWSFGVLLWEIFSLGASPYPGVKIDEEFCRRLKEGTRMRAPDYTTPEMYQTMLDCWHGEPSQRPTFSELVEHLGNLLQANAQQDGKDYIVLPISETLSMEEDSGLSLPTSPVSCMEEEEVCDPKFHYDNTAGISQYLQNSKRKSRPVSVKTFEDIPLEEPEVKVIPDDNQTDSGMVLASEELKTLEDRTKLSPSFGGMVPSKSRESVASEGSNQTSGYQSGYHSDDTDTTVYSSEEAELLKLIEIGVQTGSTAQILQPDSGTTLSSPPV
Sequence of VEGFR2 (P35968 20-1356): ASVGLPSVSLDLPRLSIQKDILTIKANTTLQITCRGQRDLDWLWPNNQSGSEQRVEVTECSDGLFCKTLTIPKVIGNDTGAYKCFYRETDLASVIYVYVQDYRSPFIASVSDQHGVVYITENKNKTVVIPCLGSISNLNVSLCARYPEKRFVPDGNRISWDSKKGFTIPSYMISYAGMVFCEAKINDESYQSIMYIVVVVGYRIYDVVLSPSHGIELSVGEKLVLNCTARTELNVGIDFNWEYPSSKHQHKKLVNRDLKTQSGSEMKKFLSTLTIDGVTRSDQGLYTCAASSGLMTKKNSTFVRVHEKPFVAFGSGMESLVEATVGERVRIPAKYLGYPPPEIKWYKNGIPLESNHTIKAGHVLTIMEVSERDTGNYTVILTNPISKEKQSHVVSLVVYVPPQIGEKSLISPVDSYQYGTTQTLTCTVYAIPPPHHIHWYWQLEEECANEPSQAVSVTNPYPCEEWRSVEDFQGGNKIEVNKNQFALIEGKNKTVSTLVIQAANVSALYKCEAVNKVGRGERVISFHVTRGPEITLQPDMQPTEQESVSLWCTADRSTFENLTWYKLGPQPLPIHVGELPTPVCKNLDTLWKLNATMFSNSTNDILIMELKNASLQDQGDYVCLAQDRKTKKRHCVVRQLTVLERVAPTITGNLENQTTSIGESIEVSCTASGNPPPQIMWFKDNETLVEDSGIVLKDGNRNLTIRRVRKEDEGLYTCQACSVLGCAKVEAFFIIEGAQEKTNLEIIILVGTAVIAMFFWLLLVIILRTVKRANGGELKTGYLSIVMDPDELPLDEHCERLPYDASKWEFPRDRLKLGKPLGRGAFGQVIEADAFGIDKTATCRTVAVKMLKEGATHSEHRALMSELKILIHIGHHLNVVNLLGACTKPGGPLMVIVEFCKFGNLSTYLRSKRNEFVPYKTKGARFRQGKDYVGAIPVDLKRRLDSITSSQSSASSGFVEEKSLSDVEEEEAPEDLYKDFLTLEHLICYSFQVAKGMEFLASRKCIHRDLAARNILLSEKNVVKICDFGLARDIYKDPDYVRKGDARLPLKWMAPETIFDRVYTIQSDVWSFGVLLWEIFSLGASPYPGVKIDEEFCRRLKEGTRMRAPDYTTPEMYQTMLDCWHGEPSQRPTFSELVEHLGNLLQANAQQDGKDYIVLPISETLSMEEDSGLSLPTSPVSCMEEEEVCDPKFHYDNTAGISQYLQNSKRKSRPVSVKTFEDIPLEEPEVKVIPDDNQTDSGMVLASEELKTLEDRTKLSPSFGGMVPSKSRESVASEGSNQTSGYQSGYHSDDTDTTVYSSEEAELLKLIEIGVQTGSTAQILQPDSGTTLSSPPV

Compound	IC50 (PDGFRβ [1]) [nM]	IC50 (VEGFR2 (KDR)) [nM]	IC50 (VEGFR2) [nM]	IC50 (PDGFRβ [2]) [nM]
6-Amino-N-[(3-hydroxypropyl)(methyl)oxido-λ^4-sulfanylidene]-5-({3-[(3-methyl-2-furoyl)amino]phenyl}ethynyl)nicotinamide [Example 42]	13	5	–	–
CS(C)(=O)=NC(=O)c1cncc(C#Cc2cccc(NC(=O)Nc3ccccc3F)c2)c1 [Example 9, N-[Dimethyl(oxido)-λ^4-sulfanylidene]-5-{[3-({[(2-fluorophenyl)amino]carbonyl}amino)phenyl]ethynyl}nicotinamide]	–	8	48	–
Cc1cccc(NC(=O)Nc2cccc(C#Cc3cncc(C(=O)N=S(C)(C)=O)c3)c2)c1 [Example 10, N-[Dimethyl(oxido)-λ^4-sulfanylidene]-5-{[3-({[(3-methylphenyl)amino]carbonyl}amino)phenyl]ethynyl}nicotinamide]	19	8	11	–
Cc1ccc(NC(=O)Nc2cccc(C#Cc3cncc(C(=O)N=S(C)(C)=O)c3)c2)cc1 [Example 11, N-[Dimethyl(oxido)-λ^4-sulfanylidene]-5-{[3-({[(4-methylphenyl)amino]carbonyl}amino)phenyl]ethynyl}nicotinamide]	19	6	15	–
Cc1ccc(F)c(C(=O)Nc2cccc(C#Cc3cncc(C(=O)N=S(=O)(CCCO)CCCO)c3)c2)c1 [Example 20, N-[Bis(3-hydroxypropyl)(oxido)-λ^4-sulfanylidene]-5-({3-[(2-fluoro-5-methylbenzoyl)amino]phenyl}ethynyl)nicotinamide]	–	9	–	–
COC(=O)CCCCS(C)(=O)=NC(=O)c1cnc(N)c(C#Cc2cccc(NC(=O)c3cc(C)ccc3F)c2)c1 (stereo not shown) [Example 25, Methyl 5-(N-{[6-amino-5-({3-[(2-fluoro-5-methylbenzoyl)amino]phenyl}ethynyl)pyridin-3-yl]carbonyl}-S-methylsulfonimidoyl)pentanoate]	45	8	–	27
COC(=O)CCCCS(C)(=O)=NC(=O)c1cnc(N)c(C#Cc2cccc(C(=O)Nc3cc(C)ccc3F)c2)c1 (stereo not shown) [Example 35, Methyl 5-[N-({6-amino-5-[(3-{[(2-fluoro-5-methylphenyl)amino]carbonyl}phenyl)ethynyl]pyridin-3-yl}carbonyl)-S-methylsulfonimidoyl]pentanoate]	–	17	–	43
(R)—N-[(3-Hydroxypropyl)(methyl)oxido-λ^4-sulfanylidene]-5-({3-[(3-methyl-2-furoyl)amino]phenyl}ethynyl)nicotinamide [Example 40]	–	3	2	–

The remaining compounds from weak to strong by IC50 (VEGFR2 (KDR)), led by results:

IC50 (PDGFRβ [1]) [nM]	IC50 (VEGFR2 (KDR)) [nM]	IC50 (VEGFR2) [nM]	IC50 (PDGFRβ [2]) [nM]	Compound
–	6	51	–	Cn1ccnc1C(=O)Nc1cccc(C#Cc2cc(C(=O)N=S(C)(C)=O)cnc2N)c1 [Example 7, 6-Amino-N-[dimethyl(oxido)-λ^4-sulfanylidene]-5-[(3-{[(1-methyl-1H-imidazol-2-yl)carbonyl]amino}phenyl)ethynyl]nicotinamide]
26	5	–	–	Cc1ccoc1C(=O)Nc1cccc(C#Cc2cncc(C(=O)N=S(=O)(CCCO)CCCO)c2)c1 [Example 14, N-[Bis(3-hydroxypropyl)(oxido)-λ^4-sulfanylidene]-5-({3-[(3-methyl-2-furoyl)amino]phenyl}ethynyl)nicotinamide]
–	5	–	–	O=C(N=S(=O)(CCCO)CCCO)c1cncc(C#Cc2cccc(NC(=O)c3ccc(F)c(Cl)c3)c2)c1 [Example 19, N-[Bis(3-hydroxypropyl)(oxido)-λ^4-sulfanylidene]-5-({3-[(3-chloro-4-fluorobenzoyl)amino]phenyl}ethynyl)nicotinamide]
–	5	–	–	COc1cccc(C(=O)Nc2cccc(C#Cc3cc(C(=O)N=S(=O)(CCCO)CCCO)cnc3N)c2)c1 [Example 21, 6-Amino-N-[bis(3-hydroxypropyl)(oxido)-λ^4-sulfanylidene]-5-({3-[(3-methoxybenzoyl)amino]phenyl}ethynyl)nicotinamide]
–	5	46	–	Cc1ccoc1C(=O)Nc1cccc(C#Cc2cc(C(=O)N=S(C)(=O)CCCCC(=O)O)cnc2N)c1 (stereo not shown) [Example 24, 5-(N-{[6-amino-5-({3-[(3-methyl-2-furoyl)amino]phenyl}ethynyl)pyridin-3-yl]carbonyl}-S-methylsulfonimidoyl)pentanoic acid]
14	5	–	44	COC(=O)CCCCS(C)(=O)=NC(=O)c1cnc(N)c(C#Cc2cccc(NC(=O)Nc3cc(C)ccc3F)c2)c1 (stereo not shown) [Example 37, Methyl 5-{N-[(6-amino-5-{[3-({[(2-fluoro-5-methylphenyl)amino]carbonyl}amino)phenyl]ethynyl}pyridin-3-yl)carbonyl]-S-methylsulfonimidoyl}pentanoate]
–	4	–	–	O=C(N=S(=O)(CCCO)CCCO)c1cncc(C#Cc2cccc(NC(=O)c3cccc(C(F)(F)F)c3)c2)c1 [Example 18, N-[Bis(3-hydroxypropyl)(oxido)-λ^4-sulfanylidene]-5-[(3-{[3-(trifluoromethyl)benzoyl]amino}phenyl)ethynyl]nicotinamide]
16	3	–	–	Cc1ccoc1C(=O)Nc1cccc(C#Cc2cc(C(=O)N=S(=O)(CCCO)CCCO)cnc2N)c1 [Example 15, 6-amino-N-[bis(3-hydroxypropyl)(oxido)-λ^4-sulfanylidene]-5-({3-[(3-methyl-2-furoyl)amino]phenyl}ethynyl)nicotinamide]
–	3	–	–	O=C(N=S(=O)(CCCO)CCCO)c1cncc(C#Cc2cccc(NC(=O)c3ccc(Cl)c(C(F)(F)F)c3)c2)c1 [Example 16, N-[Bis(3-hydroxypropyl)(oxido)-λ^4-sulfanylidene]-5-[(3-{[4-chloro-3-(trifluoromethyl)benzoyl]amino}phenyl)ethynyl]nicotinamide]
6	3	–	–	Cc1cccc(C(=O)Nc2cccc(C#Cc3cncc(C(=O)N=S(=O)(CCCO)CCCO)c3)c2)c1 [Example 17, N-[Bis(3-hydroxypropyl)(oxido)-λ^4-sulfanylidene]-5-({3-[(3-methylbenzoyl)amino]phenyl}ethynyl)nicotinamide]
8	3	–	–	Cc1cccc(NC(=O)c2cccc(C#Cc3cc(C(=O)N=S(=O)(CCCO)CCCO)cnc3N)c2)c1 [Example 22, 6-Amino-N-[bis(3-hydroxypropyl)(oxido)-λ^4-sulfanylidene]-5-[(3-{[(3-methylphenyl)amino]carbonyl}phenyl)ethynyl]nicotinamide]
22	2	9	–	CS(C)(=O)=NC(=O)c1cnc(N)c(C#Cc2cccc(NC(=O)c3ccc(Cl)cc3)c2)c1 [Example 5, 6-Amino-5-({3-[(4-chlorobenzoyl)amino]phenyl}ethynyl)-N-[dimethyl(oxido)-λ^4-sulfanylidene]nicotinamide]
